In patent publication US7214395B2, “Pharmaceutical and cosmetic composition against skin aging” (Indena S.p.A., priority 2001, dated 2007):

Test system: fibroblasts
Assay: collagen metabolism / amino acid up-take by fibroblasts
Assay type: cell-based
From the text: […]. An improved synthesis of collagen means a faster substitution of the degraded old fibers of collagen with the new ones.

SMILES	activity on collagen metabolism	capability of the fibroblasts to up-take amino acids such as L-Proline and L-Hydroxyproline
C[C@H]1[C@H](C)CC[C@]2(C(=O)O)CC[C@]3(C)C(=CC[C@@H]4[C@@]5(C)C[C@@H](O)[C@H](O)[C@@](C)(CO)[C@@H]5CC[C@]43C)[C@H]12 [asiatic acid]	strong activity	improve
C[C@H]1[C@H](C)CC[C@]2(C(=O)O)CC[C@]3(C)C(=CC[C@@H]4[C@@]5(C)C[C@@H](O)[C@H](O)[C@@](C)(CO)[C@@H]5[C@H](O)C[C@]43C)[C@H]12 [madecassic acid]	strong activity	improve
